Laboratory results from ChEMBL document CHEMBL1201862, “PubChem BioAssay data set” (2004).
Activity calls are given as the source filed them.

Legend:
[1] = target: T1, Endoribonuclease toxin MazF (Escherichia coli K-12, UniProt P0AE70); assay: substrate-only fluorescence increase artefacts – biochemical, single-stranded RNase substrate, counter-screen for MazEF activator project, dose response (AID 588502); format: functional
T1 sequence (P0AE70 whole entry): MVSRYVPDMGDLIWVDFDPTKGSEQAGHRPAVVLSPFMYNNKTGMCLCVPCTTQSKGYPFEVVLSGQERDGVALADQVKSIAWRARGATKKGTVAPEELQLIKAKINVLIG

[2] = target: T1, Endoribonuclease toxin MazF; assay: activation of MazEF endoribonuclease cleavage – biochemical, fluorescence, single-stranded RNA substrate, uHTS hits, dose response (AID 588481); format: functional
[3] = target: Mitogen-activated protein kinase 10 (Homo sapiens, UniProt P53779); assay: Dose response biochemical screening assay for inhibitors of c-Jun N-Terminal Kinase 3 (JNK3). [Related pubchem assays: 746 ]
Sequence of Mitogen-activated protein kinase 10 (P53779 whole entry): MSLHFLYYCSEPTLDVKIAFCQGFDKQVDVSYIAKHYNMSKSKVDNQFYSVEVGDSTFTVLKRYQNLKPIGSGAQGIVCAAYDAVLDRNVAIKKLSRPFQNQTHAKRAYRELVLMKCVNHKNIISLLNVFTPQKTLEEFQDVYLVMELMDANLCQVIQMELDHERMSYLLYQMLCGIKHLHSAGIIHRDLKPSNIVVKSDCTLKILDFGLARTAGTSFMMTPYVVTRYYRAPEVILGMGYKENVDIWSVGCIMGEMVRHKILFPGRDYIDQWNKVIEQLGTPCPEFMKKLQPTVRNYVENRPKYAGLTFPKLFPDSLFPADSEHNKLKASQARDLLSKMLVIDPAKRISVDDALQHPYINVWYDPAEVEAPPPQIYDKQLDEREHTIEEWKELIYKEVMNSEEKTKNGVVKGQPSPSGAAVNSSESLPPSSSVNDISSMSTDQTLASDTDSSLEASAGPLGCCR

[4] = Luminescence Cell-Based Dose Retest to Confirm Inhibitors of Cancer Stem Cells. [Related pubchem assays (depositor defined):AID2717, AID2721]; format: functional; conditions: Homo sapiens
H9c2 = assay: cells; format: functional, cell-based; conditions: Rattus norvegicus, H9c2, Myocardium;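 further: confirmatory concentration-response retest of ultra-high-throughput screening hits for modulation of myocardial damage; cell death induced by hydrogen peroxide oxidative stress; compound pretreatment for 60 min then peroxide exposure for 2 h; potency is for protecting the cells against peroxide damage rather than for killing them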
Steroidogenic factor 1 = Steroidogenic factor 1 (Homo sapiens, UniProt Q13285); assay: Counterscreen for inverse agonists of the liver receptor homolog-1 (LRH-1; NR5A2): Luminescence-based cell-based high throughput dose response assay to identify inverse agonists of the Steroidogenic Factor 1 Nuclear Receptor (SF1; NR5A1).; format: functional
Sequence of Steroidogenic factor 1 (Q13285 whole entry): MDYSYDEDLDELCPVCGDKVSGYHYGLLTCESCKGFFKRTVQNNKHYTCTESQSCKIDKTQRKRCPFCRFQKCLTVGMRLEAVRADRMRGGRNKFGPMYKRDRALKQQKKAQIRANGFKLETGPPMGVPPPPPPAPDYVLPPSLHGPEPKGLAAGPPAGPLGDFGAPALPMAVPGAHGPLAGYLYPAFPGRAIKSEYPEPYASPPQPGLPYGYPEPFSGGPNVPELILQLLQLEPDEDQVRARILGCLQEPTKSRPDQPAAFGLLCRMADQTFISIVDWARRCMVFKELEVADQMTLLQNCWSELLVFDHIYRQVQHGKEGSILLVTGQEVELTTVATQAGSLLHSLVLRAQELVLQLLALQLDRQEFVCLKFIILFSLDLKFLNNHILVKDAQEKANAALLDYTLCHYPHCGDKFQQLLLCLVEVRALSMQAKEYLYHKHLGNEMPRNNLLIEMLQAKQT

[5] = nonselective StAR promoter luciferase inhibitors – cell-based, luminescence, luciferase reporter, counter-screen for LRH-1 inverse agonist project, dose response (AID 651969); format: functional
[6] = target: Nuclear receptor subfamily 5 group A member 2 (Homo sapiens, UniProt O00482); format: functional, cell-based;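 further: HEK293T cells transfected with LRH-1 and a StAR promoter luciferase reporter; potency for inhibitors that lower LRH-1 driven reporter light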
Sequence of Nuclear receptor subfamily 5 group A member 2 (O00482 whole entry): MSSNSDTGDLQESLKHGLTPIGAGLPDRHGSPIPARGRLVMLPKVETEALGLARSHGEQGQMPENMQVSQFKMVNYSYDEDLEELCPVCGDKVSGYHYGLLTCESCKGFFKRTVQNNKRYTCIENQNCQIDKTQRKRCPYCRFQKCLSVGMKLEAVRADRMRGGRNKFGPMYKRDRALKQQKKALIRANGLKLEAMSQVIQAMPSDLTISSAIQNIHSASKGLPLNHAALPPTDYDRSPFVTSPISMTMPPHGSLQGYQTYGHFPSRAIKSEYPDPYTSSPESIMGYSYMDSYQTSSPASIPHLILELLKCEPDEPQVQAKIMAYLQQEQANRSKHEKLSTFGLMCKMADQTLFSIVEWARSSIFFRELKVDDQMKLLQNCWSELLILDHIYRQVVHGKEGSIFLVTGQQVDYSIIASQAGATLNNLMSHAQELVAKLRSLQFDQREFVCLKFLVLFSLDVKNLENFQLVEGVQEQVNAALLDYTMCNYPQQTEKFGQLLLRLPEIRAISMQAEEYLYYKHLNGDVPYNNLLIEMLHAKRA

[7] = target: T2, High affinity choline transporter 1 (Homo sapiens, UniProt Q9GZV3); assay: human choline transporter blockers, potency – cell-based, 5-point CRC, membrane potential dye, dose response (AID 504840); format: functional
T2 sequence (Q9GZV3 whole entry): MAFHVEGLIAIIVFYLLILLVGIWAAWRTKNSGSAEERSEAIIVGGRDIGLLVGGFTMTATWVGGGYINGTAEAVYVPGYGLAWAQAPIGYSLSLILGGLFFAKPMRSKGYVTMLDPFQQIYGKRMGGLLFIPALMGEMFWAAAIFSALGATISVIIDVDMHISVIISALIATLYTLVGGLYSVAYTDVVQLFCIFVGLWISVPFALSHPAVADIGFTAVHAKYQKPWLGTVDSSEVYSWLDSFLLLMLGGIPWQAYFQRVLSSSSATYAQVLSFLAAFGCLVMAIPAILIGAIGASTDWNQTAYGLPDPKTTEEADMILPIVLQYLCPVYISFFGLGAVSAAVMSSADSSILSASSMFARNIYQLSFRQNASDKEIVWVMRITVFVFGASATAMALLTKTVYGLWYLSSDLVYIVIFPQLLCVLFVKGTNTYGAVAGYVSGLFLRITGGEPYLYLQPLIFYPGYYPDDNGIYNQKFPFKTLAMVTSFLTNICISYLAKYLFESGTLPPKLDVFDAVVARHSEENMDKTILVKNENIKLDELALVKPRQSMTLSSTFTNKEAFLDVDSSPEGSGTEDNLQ

[8] = intracellular Trypanosoma cruzi inhibitors in host cells – cell-based, plate reader, cherry-pick samples, set 3, dose response (AID 651818); format: functional;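 further: compounds incubated with infected cells for about four days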
[9] = toxicity to human HepG2 hepatoma cells – cell-based, plate reader, dry powder samples, cytotoxicity control, dose response (AID 1159569); format: functional;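 further: inhibitor potency with signal falling toward the positive control level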
[10] = growth inhibition of yeast DHODH-expressing 3D7 parasites – SYBR Green, dry powder samples, dose response (AID 1159570); format: functional, cell-based;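 further: parasite growth measured after 72 hours of compound exposure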
[11] = growth inhibition of PfATP4-mutant resistant parasites – NITD609-resistant line, SYBR Green, dry powder, dose response (AID 1159571); format: functional, cell-based;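 further: parasites synchronized at ring stage by sorbitol before testing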
[12] = Dd2 malaria parasite growth inhibition potency – SYBR Green, dry powder samples, dose response (AID 1159566); format: functional, cell-based;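 further: potency for growth inhibition with lower SYBR green DNA signal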
[13] = P. falciparum Dd2 growth inhibitors, dose response, SYBR Green, cherry-picked samples (AID 1159567); format: functional, cell-based

Structure (SMILES): COc1cc2c(cc1OC)C(/C=C(\O)c1ccc([N+](=O)[O-])c(C)c1)=NCC2
- EC50 [1]: 43.8 µM (inactive)
- EC50 [2]: > 99 µM (inactive)

Structure (SMILES): CCOC(=O)C1=C(C)OC(N)=C(C#N)C1c1cc2ccccc2nc1N1CCCCC1 (configuration not stated)
- IC50 [3]: > 93.1 µM (not active)

Structure (SMILES): Cc1ccc(NC(=O)c2[nH]cnc2C(=O)NCCCNC(=O)c2nc[nH]c2C(=O)Nc2ccc(C)cc2)cc1
- AC50 [4]: 3.39 µM (active)
- IC50 (H9c2): > 79 µM (inactive)

Structure (SMILES): CCc1cc(=O)oc2cc(C)cc(OCC(=O)NC3CC3)c12
- IC50 (Steroidogenic factor 1): 0.359 µM (active)
- IC50 [5]: 35.9 µM (inactive)
- IC50 [6]: 0.292 µM (active)

Structure (SMILES): Nc1ccc(C(=O)NN2C(=O)[C@H](Cl)C2c2ccc(Cl)cc2)cc1 (some centres not stated)
- IC50 (Steroidogenic factor 1): 11.7 µM (inactive)
- IC50 [5]: 28.8 µM (inactive)
- IC50 [6]: 11.9 µM (inactive)

Structure (SMILES): CCCCN(CCCC)CCNC(=O)c1cn(C)c2ccc(S(=O)(=O)N(C)C3CCCCC3)cc2c1=O
- IC50 [7]: 15.6 µM (active)

Structure (SMILES): COc1cc(C(=O)NCC(=O)N/N=C/c2ccc(-c3cccc([N+](=O)[O-])c3)o2)cc(OC)c1OC
- IC50 (H9c2): 10.6 µM (active)

Structure (SMILES): COc1ccc(/C=N/NC(=O)c2cccnc2)cc1CSc1nc2ccccc2s1
- IC50 (H9c2): 21.2 µM (active)

Structure (SMILES): C[C@H](CO)N1C[C@H](C)[C@H](CN(C)C(=O)Nc2ccccc2)Oc2ncc(C#Cc3ccc(C(F)(F)F)cc3)cc2C1=O
- AC50 [8]: 1.37 µM (active)

Structure (SMILES): Cc1noc(C)c1S(=O)(=O)Nc1ccc2c(c1)CC(=O)N([C@H](C)CO)C[C@@H](C)[C@@H](CN(C)Cc1ccc(Cl)c(Cl)c1)O2
- AC50 [8]: 6.96 µM (active)

Structure (SMILES): C[C@H]1CN([C@@H](C)CO)C(=O)Cc2cc(NC(=O)Nc3ccc(C(F)(F)F)cc3)ccc2O[C@H]1CN(C)Cc1ccc(C(F)(F)F)cc1
- AC50 [8]: 4.47 µM (active)

Structure (SMILES): C[C@@H]1CN([C@H](C)CO)C(=O)Cc2cc(NC(=O)Nc3ccc(C(F)(F)F)cc3)ccc2O[C@@H]1CN(C)Cc1ccc(C(F)(F)F)cc1
- AC50 [8]: 1.19 µM (active)

Structure (SMILES): C[C@@H]1CCCCO[C@@H](CN(C)Cc2ccc(Cl)c(Cl)c2)[C@@H](C)CN([C@H](C)CO)C(=O)c2cc(NS(=O)(=O)c3ccc(Cl)cc3)ccc2O1
- AC50 [8]: 6.5 µM (active)

Structure (SMILES): OC[C@@H]1[C@@H](c2ccccc2)C2(CN(Cc3ccccc3F)C2)N1Cc1ccccc1F
- AC50 [9]: 35.8 µM (active)
- AC50 [10]: 2.31 µM (active)
- AC50 [11]: 1.94 µM (active)
- AC50 [12]: 1.65 µM (active)

Structure (SMILES): CN(C)/C=c1\sc2c(C#N)cc(C(=O)c3ccc(Br)cc3)n2c1=O
- EC50 [1]: 22.3 µM (inactive)
- EC50 [2]: > 99 µM (inactive)

Structure (SMILES): CC(=O)Nc1cc(Cl)c(/N=C/c2ccc(O)cc2O)cc1Cl
- EC50 [1]: > 99 µM (inactive)
- EC50 [2]: > 99 µM (inactive)

Structure (SMILES): COc1ccc(C#Cc2ccc([C@H]3[C@H]4CN(C(=O)c5ccccc5)CC(=O)N4[C@H]3CO)cc2)cc1
- AC50 [9]: 23.5 µM (active)
- AC50 [10]: 3.84 µM (active)
- AC50 [13]: 2.52 µM (active)
- AC50 [11]: 2.13 µM (active)
- AC50 [12]: 2.26 µM (active)

Structure (SMILES): CO[C@H]1CN(C)C(=O)c2cc(NC(=O)C3CC3)ccc2OC[C@H](C)N(Cc2cc(F)ccc2F)C[C@H]1C
- AC50 [9]: 45.2 µM (active)
- AC50 [10]: 4.89 µM (active)
- AC50 [13]: 2.14 µM (active)
- AC50 [11]: 1.99 µM (active)
- AC50 [12]: 1.35 µM (active)
